“Also recorded” adds a separate entry of the source.
What was measured:
NIH3T3 HRAS/G12V tumors = experiment: Mouse xenograft, NIH3T3 HRAS/G12V; assay type: in vivo
Procedure: (§1) In vivo target (RET and VEGFR2) inhibition was studied by treating animals grafted with NIH3T3 RET/C634Y cells at different doses (0.3, 1, or 3 mg/kg/day p.o.) of NPA101.3 for 2 days and then performing Western blot analysis on protein extracts. […] Then, to determine antitumorigenic activity and to better distinguish RET- and VEGFR2-mediated effects, we tested NPA101.3 in nude mice transplanted with NIH3T3 cells transformed by either RET/C634Y or HRAS/G12V. Before tumors appeared, animals were treated daily with NPA101.3 (1.0, 3.0, or 10.0 mg/kg/day) or left untreated. […] Still, VEGFR2 inhibition was detected also in RAS-driven tumors, an effect that might explain the, albeit reduced, effect of the drug on their growth (Figure S13). Importantly, as predicted, no trace of NPA101.3 demethyl metabolites was detected after 1 or 4 h from oral dosing in mice (Figure S14).
Figure 6 Effects of NPA101.3 on in vivo tumor growth. NIH3T3 cells transformed by RET/C634Y or HRAS/G12V were inoculated subcutaneously into nu/nu mice. After 4 days, animals were randomly assigned to receive for the indicated time periods the compound (1.0, 3.0, or 10 mg/kg/day) (24 mice; 8 mice/group for 1, 3, and 10 mg/kg doses) or vehicle (8 mice) by oral gavage. The average size of tumors is reported ± SD.
NPA101.3 was dissolved in 80% H2O, 19.875% Tween 20, and 0.125% xanthan gum. The formulation was stored at room temperature and vortexed prior to administration. NIH3T3 RET/C634Y (200000) or NIH3T3 HRAS/G12V (50000) cells were inoculated subcutaneously into the dorsal portion (both sides) of 6-week-old female BALB/c nu/nu mice (32 mice/cell line) (Jackson Laboratories, Bar Harbor, ME). After 4 days, before tumors had appeared, animals were randomly assigned to receive NPA101.3 (1.0, 3.0, or 10 mg/kg/day) (8 mice/group) or vehicle control (8 mice) by oral gavage. Tumor diameters were measured with caliper every 2–3 days. Tumor volumes (V) were calculated by the rotational ellipsoid formula V = A × B^2/2 (A is the axial diameter, and B is the rotational diameter). […]

[1] = test system: RET and VEGFR2 in NIH3T3 RET/C634Y tumours; experiment: In vivo target (RET and VEGFR2) inhibition, Western blot of established tumours; parameters: species or system mouse; settings: 3 mg/kg/day p.o. for 2 days, harvested 3 h after last dose
Procedure: as §1
Supplementary Figure S11: In vivo target inhibition of NPA101.3 in nude mice implanted with cells transformed by RET/C634Y […] NIH3T3 RET/C634Y cells (2 x 105) were inoculated subcutaneously into the right and left dorsal portions of nude mice. When tumours reached approximately ~200 mm 3, mice (2 mice/dose) were treated by oral gavage with 3 doses (0, 24, 48 h) of the compound (0.3, 1 and 3 mg/Kg) or left untreated (NT); proteins were harvested 3 h after the last dose. […]

CC(C)(C)c1cc(NC(=O)Cc2ccc(-n3cnc4cc(-c5ccc(S(C)(=O)=O)cc5)ccc43)cc2)no1 [NPA101.3]
formation of tumors driven by HRAS/G12V (NIH3T3 HRAS/G12V tumors; 10 mg/kg/day oral, nu/nu mice): weakened, but did not abrogate; also recorded: reduced, but did not abrogate | RAS signaling (MAPK phosphorylation) in NIH3T3 HRAS/G12V tumors (NIH3T3 HRAS/G12V tumors; 3 h after last dose): virtually no effect | VEGFR2 inhibition in RAS-driven tumors (NIH3T3 HRAS/G12V tumors; 3 h after last dose): detected | RET autophosphorylation and signaling and VEGFR2 phosphorylation in tumours [1]: strongly inhibited
